The series in a line: excess molar enthalpy (molar enthalpy of mixing); xn = mol fraction of the nth substance listed. The note with it: 298.15 K, 101 kPa, Liquid, Flow calorimetry.

Numbers after ± are expanded uncertainties.

Results on 1 compound are retold here after the NIST ThermoML archive (doi:10.1016/j.tca.2005.06.011).

Consider `CC(C)O` [propan-2-ol] + CCCO, for which the excess molar enthalpy was -0.00906 ± 0.000263 kcal/mol (x2 = 0.2499), -0.0108 ± 0.000263 kcal/mol (x2 = 0.5) and -0.00837 ± 0.000239 kcal/mol (x2 = 0.75).
